How the values were obtained:
[1] = system: rat neonatal ventricular cardiomyocytes (NRVMs); assay: Cardiomyocyte apoptosis, AnnexinV-FITC/PI flow cytometry and cleaved caspase-3 western blot; type: cell-based
Procedure: In FIG. 5A apoptosis in control, BRCA1-overexpressing, doxorubicin-treated and doxorubicin-treated-BRCA1-overexpressing neonatal rat ventricular cardiomyocytes (NRVCM) was assessed by Annexin V-FITC and propidium iodide staining coupled with flow cytometry. Quadrants S1, S2, S3 and S4 respectively represent necrotic, late apoptotic, viable live and early apoptotic NRVCM. FIG. 5B is a representative western blot of cleaved caspase-3 and α-actin proteins in NRVCM infected with either 10 MOI Ad-hBRCA1 or Ad-null vector for 48 hours before being exposed to 2 μM doxorubicin for 24 hours. Data are expressed as mean±SD. n=3. *P<0.05 vs untreated control group. †P<0.01 vs doxorubicin group.
The effect of pifithrin-α on doxorubicin-induced cardiomyocyte apoptosis, with or without overexpression of BRCA1 was examined. […]
BRCA-1 induced gain of function and protection against genotoxic and oxidative stress-induced apoptosis was also examined in vitro. […] Cardiomyocytes were incubated with the virus (human BRCA1 or GFP) for 48 hours after which expression of human BRCA1 or GFP were determined. Expression of BRCA1 was analyzed by real-time PCR and western blotting (see FIGS. 4A and 4B) and expression of GFP was analyzed by live cell video microscopy. […] Based on this observation, 10 MOI was determined to be the best of the three tested concentrations of the adenoviral construct. […]

[2] = system: BRCA1 and p53 interaction; assay: Co-immunoprecipitation of BRCA1 and p53 in cardiomyocytes; type: cell-based, rat; conditions: agent alone
Procedure: BRCA1 physically interacts with p53 in order to regulate p53 activity in a context dependent manner. Proteins were extracted after treatment and equal amounts (100 μg) of lysates were resolved by SDS PAGE.
Experiments were performed to access the interaction of BRCA1 with p53 in cardiomyocytes. […] Additionally, doxorubicin treatment, in the presence of overexpressing BRCA1 strengthened this association (lane 4, FIG. 6).
For analysis of physical interaction between BRCA1 and p53, cardiomyocytes were maintained and treated in 6-cm culture-dishes. After adenoviral and/or stress treatments, cells were scraped and suspended in 100 μL of RIPA buffer. The total cell lysate was obtained after homogenization and centrifugation at 14,000 g for 30 minutes at 4° C. Protein concentration was determined by the Bradford assay. Aliquots of each fraction (100 μg protein for total cell lysate) were incubated with either 0.5 μg of anti-p53 mouse monoclonal antibody (Cell Signaling Technology, USA) or with 0.5 μg of anti-BRCA1 (Santa Cruz Biotechnology, USA) for 1 hour at 4° C. Addition of protein A-Sepharose (Santa Cruz Biotechnology) and incubation for 16 hours at 4° C. was followed by centrifugation and repetitive washing of the Sepharose beads. […]

p53 = assay: Western blot for p53 and phospho-p53 in cultured cardiomyocytes; type: cell-based, rat; conditions: NRVMs
Procedure: GAPDH was used as loading control. Phospho-p53 antibodies were directed against serine 15 of p53 protein.
Cardiomyocytes were infected with 10MOI of a replication deficient adenoviral vector containing the CMV promoter and either human BRCA1 or a null vector (human Adenovirus Type5 dE1/E3, Vector Biolabs, USA). Following 48 hours incubation, cardiomyocytes were treated with 21 μM of doxorubicin or 50 μM of H2O2. The inhibitor of p53, pifithrin-α (10 μm, Sigma Aldrich, USA) was added 2 hrs prior to the addition of doxorubicin or hydrogen peroxide. After 24 hours, cardiomyocytes were either trypsinized and collected for flow cytometry or harvested for protein and RNA extraction.

Wild-type mice = assay: Doxorubicin-induced cardiac dysfunction in mice, echocardiography; conditions: doxorubicin 10 mg/kg i.p.; echocardiography day 3 and day 7
Procedure: Left ventricular function was assessed by echocardiography measuring percent systolic ejection fraction 3 days (FIG. 3A) or 7 days (FIG. 3B) after administration of vehicle, Ad-null vector (40 μl of 10^10 PFU, i.v.), Ad-GFP (40 μl of 10^10 PFU, i.v.), doxorubicin (10 mg/kg, i.p.) or doxorubicin (10 mg/kg, i.p.) with Ad-hBRCA1 (40 μl of 10^10 PFU, i.v.). Left ventricular function was also assessed by measuring fractional shortening values 3 days (FIG. 3C) after administration of vehicle, Ad-null vector (40 μl of 10^10 PFU, i.v.), Ad-GFP (40 μl of 10^10 PFU, i.v.), doxorubicin (10 mg/kg, i.p.) or doxorubicin (10 mg/kg, i.p.) with Ad-hBRCA1 (40 μl of 10^10 PFU, i.v.). *P<0.01 vs corresponding PBS group. †P<0.01 vs corresponding doxorubicin group. # p<0.01 vs. PBS+ad-GFP, ## p<0.001 vs. Dox+ad-BRCA1. n=3 for PBS and GFP groups; n=7 for doxorubicin and doxorubicin-BRCA1 groups. […]
Double-blinded echocardiography was performed on the doxorubicin- and adenoviral vectors-treated mice 3 days and 7 days post-treatment. […] End-diastolic posterior LV wall thickness, LV end-diastolic (LVEDD) and end-systolic LV dimension (LVESD) were measured. During diastole, LV dimension and wall thickness were measured from the maximum chamber cavity; during systole, they were measured during maximum anterior motion of the posterior wall. […]

HUVECs = assay: HUVEC apoptosis assays (Annexin V-FITC/PI flow cytometry, cleaved caspase-3, DNA fragmentation); type: cell-based, human; conditions: ad-null infected HUVECs, 2 μM doxorubicin 24 hours
Procedure: In FIG. 23A ad-null or ad-BRCA1 infected HUVECs were treated with TNFα (20 ng/ml) for 24 hours. Cells were harvested for Annexin V-FITC and Propidium Iodide staining followed by flow cytometry. Total apoptotic cells are shown as mean±SD (n=3 in triplicate, **p<0.01). In FIG. 23B, HUVECs were treated with either siBRCA1 (10 nM) or scrambled siRNA (10 nM) for 24 hours. BRCA1-silenced and control HUVECs were treated with TNFα (20 ng/ml), stained with Annexin V-FITC and Propidium Iodide, and analyzed by flow cytometry. The percentage of total apoptotic cells are presented as mean±SD (n=3 in triplicate, **p<0.01). […] Data was calculated as the percentage of total apoptotic cells and presented as mean±SD (n=3 in triplicate, **p<0.01).
FIG. 31 is a bar graph showing protection of HUVECs against doxorubicin-induced apoptosis by BRCA1 overexpression. […] Data was calculated as the percentage of total apoptotic cells and presented as mean±SD (n=3 in triplicate, *p<0.01 vs. Ad-null group, †p<0.01 vs. Ad-null+2 μM Dox group). […]
Human umbilical vein endothelial cells (HUVECs) were purchased from Cambrex and cultured in MCDB-131 complete medium (Cambrex Corporation). […] These concentrations were determined from pilot optimization studies. […]
Apoptotic and necrotic cell death were assessed in ad-BRCA1 and ad-null infected HUVECs by flow cytometry coupled with the BD Annexin V-FITC Apoptosis Detection Kit. […]

Structure (SMILES): Cc1ccc(C(=O)Cn2c3c(sc2=N)CCCC3)cc1 [PFT-α, pifithrin-α]
- number of apoptotic cardiomyocytes ([1]; BRCA1-overexpressing cardiomyocytes treated with doxorubicin and PFT-α): no further reduction
- number of apoptotic cells ([1]; cardiomyocytes treated with doxorubicin, PFT-α 10 μm added 2 hrs prior, vs doxorubicin only): significant reductions

Structure (SMILES): COc1cccc2c1C(=O)c1c(O)c3c(c(O)c1C2=O)C[C@@](O)(C(=O)CO)C[C@@H]3O[C@H]1C[C@H](N)[C@H](O)[C@H](C)O1 [doxorubicin]
- BRCA1 and p53 association [2]: decline
- p53 level (p53; agent on its own): upregulated p53
- serine-15 phosphorylation of p53 (p53; doxorubicin alone): activated
- cardiac function (percent systolic ejection fraction, fractional shortening) (Wild-type mice): impairment in cardiac function
- apoptosis (HUVECs): prevalent
